What was measured:
[1] = system: S. aureus (ATCC 25923) infected tarsocrural joint; assay: Equine S. aureus infectious arthritis model (BIO-PLY 5 mL + 500 mg amikacin vs 500 mg amikacin + saline, intra-articular daily for 7 days); type: in vivo, horse; conditions: end-term (day 24; legend b39: day 23-24); BIO-PLY + amikacin group vs amikacin alone group, n=6 each
Text: Subsequently, the in vitro findings were translated into an in vivo equine model of S. aureus-induced infectious arthritis. Using this model, it was hypothesized that the combination of BIO-PLY and amikacin will decrease bacterial burden and improve outcome parameters in an equine S. aureus infectious arthritis model compared to horses treated with amikacin alone. A highly concentrated (>50 fold), pooled PRP-L was generated from 8 healthy donor horses and processed to have the anionic fraction, including fibrinogen, removed and passed through a 10 kDa molecular weight cutoff filter to remove proteins […] termed BIO-PLY as stated above (IACUC protocol #16-189 of NC State University, Raleigh, N.C.). […]
All horses received systemic antimicrobials (potassium penicillin and gentamicin) for 10 days post-infection as well as a tapering course of phenylbutazone for the duration of the study. Physical examinations were performed daily and pain scores based on lameness, hock swelling, distal limb swelling, pain to palpation, and presence of heat were calculated at days 0-7, 14 and 21. […] Synovial fluid was collected on day 0-7 and assessed for total protein (TP), total nucleated cell count (TNCC), cellular differential, and bacterial load determination, as well as biomarker analysis (EMD Millipore MILLIPLEX MAP Equine Cytokine/Chemokine Magnetic Bead Panel). […]

[2] = system: all isolates used in this study; assay: Antimicrobial susceptibility by microbroth dilution; type: cell-based
Text: The laboratory strain of Staphylococcus aureus, ATCC 25923, was used to initially screen the different PRP formulations. Significant findings were then validated using clinical isolates derived from cases of equine septic arthritis collected by the University of Pennsylvania School of Veterinary Medicine New Bolton Center Clinical Microbiology Laboratory and processed in accordance with their Standard Operating Procedures. In vitro antimicrobial susceptibility testing and microbial identification was performed using the ARIS Sensititre™ system, using the equine (EQUIN1F) antimicrobial susceptibility panel for veterinary organisms. Bacteria were saved in frozen stocks on glycerol at −80° C. Blood agar plates were streaked from frozen stocks and used for in vitro experiments for a maximum of 1 month. […]
Synovial fluid pooled from three horses (n=3) was infected at 1×10^5 CFU/mL for Staphylococcus aureus (ATCC 25923) or for each clinical isolate (Staphylococcus aureus, Streptococcus zooepidemicus, Pseudomonas aeruginosa, and Escherichia coli) and incubated for 2 hours at 37° C. in a microaerophilic chamber on a shaker at 120 rpm to allow for […] formation. […] Bacterial load was measured using serial dilutions and plate counting of colony forming units. […]

Structure (SMILES): NCC[C@H](O)C(=O)N[C@@H]1C[C@H](N)[C@@H](O[C@H]2O[C@H](CN)[C@@H](O)[C@H](O)[C@H]2O)[C@H](O)[C@H]1O[C@H]1O[C@H](CO)[C@@H](O)[C@H](N)[C@H]1O [amikacin]
- bacteria within the synovial tissue at end-term [1]: 80.95±58.77 CFU/g tissue
- susceptibility of isolates to amikacin [2]: susceptible

Source: US11951134B2, “Cationic platelet lysate compositions and related methods” (North Carolina State University, priority 2019, dated 2024)
